# Source: patent US12338464B2, “Clonal strains of attenuated vaccinia viruses and methods of use thereof” (priority 2011, dated 2025)
# Columns and labels:
# [1] = system: A549 human lung carcinoma xenografts; assay: A549 xenograft: tumor volume; format: in vivo, mouse; details: 2.5 μM ST-246 in addition to LIVP 5.1.1 or GLV-1h68
# [2] = A549 xenograft: average body weight; details: 2.5 μM ST-246
# [3] = system: A549 human lung carcinoma cells; format: cell-based; details: 5 μM ST-246
smiles,measurement,setting,value
O=C(NN1C(=O)[C@@H]2[C@@H]3C=C[C@@H]([C@H]4C[C@@H]34)[C@@H]2C1=O)c1ccc(C(F)(F)F)cc1 [ST-246],effect of ST-246 on tumor reduction by virus,[1],decreased the ability of each virus to reduce tumor size
same,effect of ST-246 on toxicity of virus,[2],reduced toxicity
same,effect of ST-246 on eradication of A549 cells by LIVP 5.1.1 and GLV-1h68,[3],reduced the eradication of A549 cells
